Assay results as given in PubChem BioAssay (NCI).
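At the GI50, growth is halved. TGI marks complete inhibition of growth.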

Assays:
Assay in all cases: NCI-60 cell line screen, 384-well format
[1] = system: ACHN renal
[2] = system: NCI-H23 lung
[3] = system: HL-60(TB) leukemia
[4] = system: COLO 205 colon
[5] = system: MALME-3M melanoma
[6] = system: NCI/ADR-RES ovarian
[7] = system: NCI-H460 NSCLC
[8] = system: SR leukemia
[9] = system: T-47D breast
[10] = system: HCT-116 colon
[11] = system: K-562 leukemia
[12] = system: TK-10 renal
[13] = system: CCRF-CEM leukemia
[14] = system: IGROV1 ovarian
[15] = system: UO-31 renal
[16] = system: SNB-19 CNS
[17] = system: SNB-75 CNS
[18] = system: LOX IMVI melanoma
[19] = system: UACC-62 melanoma
[20] = system: BT-549 breast
[21] = system: SF-295 CNS
[22] = system: UACC-257 melanoma
[23] = system: MDA-MB-435 melanoma
[24] = system: RXF 393 renal
[25] = system: CAKI-1 renal
[26] = system: U251 glioblastoma
[27] = system: A498 renal
[28] = system: HOP-92 NSCLC
[29] = system: RPMI-8226 leukemia
[30] = system: 786-0 renal
[31] = system: OVCAR-8 ovarian
[32] = system: NCI-H226 lung
[33] = system: SW-620 colon
[34] = system: HT29 colon
[35] = system: OVCAR-4 ovarian
[36] = system: OVCAR-5 ovarian
[37] = system: HCC-2998 colon
[38] = system: PC-3 prostate
[39] = system: HOP-62 NSCLC
[40] = system: A549 NSCLC
[41] = system: KM12 colon
[42] = system: DU-145 prostate
[43] = system: NCI-H322M lung
[44] = system: MCF7 breast
[45] = system: M14 melanoma
[46] = system: SN12C renal
[47] = system: MOLT-4 leukemia

## C[C@@H]1Cc2c(ccc3[nH]ncc23)[C@@H](c2ccc(NC3CN(CCCF)C3)cn2)N1CC(F)(F)F
[1]
  GI50: 17.5 µM
  TGI: 31.5 µM
[2]
  GI50: 11.7 µM
  TGI: 24.3 µM
[3]
  GI50: 13.5 µM
  TGI: 26.4 µM
[4]
  GI50: 16.1 µM
  TGI: 29.7 µM
[5]
  GI50: 13.8 µM
  TGI: 26.7 µM
[6]
  GI50: 23.5 µM
  TGI: 62.6 µM
[7]
  GI50: 15.6 µM
  TGI: 29.3 µM
[8]
  GI50: 2.18 µM
  TGI: 4.92 µM
[9]
  GI50: 10.9 µM
  TGI: 22.9 µM
[10]
  GI50: 13.3 µM
  TGI: 26.2 µM
[11]
  GI50: 14.2 µM
  TGI: 27.5 µM
[12]
  GI50: 16.6 µM
  TGI: 30.5 µM
[13]
  GI50: 5.58 µM
  TGI: 17.4 µM
[14]
  GI50: 14.8 µM
  TGI: 30.1 µM
[15]
  GI50: 17.6 µM
  TGI: 31.5 µM
[16]
  GI50: 23.1 µM
  TGI: 49.8 µM
[17]
  GI50: 17.6 µM
  TGI: 31.4 µM
[18]
  GI50: 15.8 µM
  TGI: 29.3 µM
[19]
  GI50: 13.8 µM
  TGI: 26.8 µM
[20]
  GI50: 13.1 µM
  TGI: 25.9 µM
[21]
  GI50: 17.7 µM
  TGI: 31.6 µM
[22]
  GI50: 13.9 µM
  TGI: 26.9 µM
[23]
  GI50: 16.8 µM
  TGI: 30.6 µM
[24]
  GI50: 4.54 µM
  TGI: 16.1 µM
[25]
  GI50: 13.7 µM
  TGI: 26.7 µM
[26]
  GI50: 15 µM
  TGI: 28.4 µM
[27]
  GI50: 12.5 µM
  TGI: 25 µM
[28]
  GI50: 13 µM
  TGI: 25.7 µM
[29]
  GI50: 6.32 µM
  TGI: 19.3 µM
[30]
  GI50: 15.2 µM
  TGI: 28.5 µM
[31]
  GI50: 15.4 µM
  TGI: 28.9 µM
[32]
  GI50: 17.4 µM
  TGI: 53.3 µM
[33]
  GI50: 16.6 µM
  TGI: 30.4 µM
[34]
  GI50: 14.6 µM
  TGI: 27.9 µM
[35]
  GI50: 19.3 µM
  TGI: 35.7 µM
[36]
  GI50: 16 µM
  TGI: 30.7 µM
[37]
  GI50: 13.8 µM
  TGI: 26.8 µM
[38]
  GI50: 14.9 µM
  TGI: 28.6 µM
[39]
  GI50: 17.6 µM
  TGI: 31.4 µM
[40]
  GI50: 27.5 µM
  TGI: 77.6 µM
[41]
  GI50: 15.8 µM
  TGI: 29.8 µM
[42]
  GI50: 18.5 µM
  TGI: 37.7 µM
[43]
  GI50: 16.4 µM
  TGI: 30.9 µM
[44]
  GI50: < 0.01 µM
  TGI: 13.5 µM
[45]
  GI50: 16.3 µM
  TGI: 29.9 µM
[46]
  GI50: 15.9 µM
  TGI: 30.5 µM
[47]
  GI50: 3.09 µM
  TGI: 12.8 µM
